Assay results taken from patent US20250101026A1, “Functionalized Allopurinol Derivatives for Treatment of Alzheimer’s Disease” (BOARD OF REGENTS OF THE UNIVERSITY OF NEBRASKA, priority 2022, published 2025).
Entries after “also recorded” stand apart in the source; their conditions may differ. Read-outs that look alike come from different tables or passages of the source.

Assays:
[1] = system: 5XFAD primary cortical neurons; assay: Mitochondrial morphology (TOM20 staining) in 5XFAD primary cortical neurons; type: cell-based, mouse; details: 10 and 50 μM, 48 hours; compared with no treatment control 5XFAD neurons
Protocol: Immunofluorescent Microscopy and Image Analysis. Isolated primary mouse cortical neurons from the 5XFAD Alzheimer's Disease mouse model were cultured for 10 days and then treated with 14b at 10 or 50 μM for 48 hours. Primary neurons growing on the coverslips were washed three times with PBS and fixed with 4% PFA. After permeabilization with 0.5% Triton™ X-100 for 15 minutes, coverslips were blocked with 10% NGS for 30 min. Coverslips were rinsed with 1% NGS in PBS and incubated with anti-TOM20 antibody at 4° C. overnight. Coverslips were then rinsed with 1% NGS, blocked in 10% NGS for 10 min, and rinsed with 1% NGS. Coverslips were incubated with species-specific AlexaFluor® 488-conjugated Abs diluted in 1% NGS for 2 h at room temperature in the dark. Coverslips were rinsed 3× with PBS. Excess liquid was removed, and slides were coverslipped using Fluoromount-G™ mounting medium. Slides were imaged using a confocal microscope with 63x/1.4NA Oil objective. The acquired images were processed for background subtraction in Zen software. Mitochondrial length was calculated from single plane images. Mitochondrial length was defined as the Feret maximum.
To obtain proof-of-concept protective effect of 14b in an ex vivo mouse model of AD we isolated primary mouse cortical neurons from the 5XFAD Alzheimer's model mouse (FIGS. 6A-6C). […]

Aβ-ABAD PPI = molecular target: T1, Aβ-ABAD PPI (Homo sapiens, UniProt Q99714); assay: Estradiol ELISA assay: rescue of Aβ-induced reduction of estradiol levels in SH-SY5Y cells; type: cell-based; details: compounds 24 hours then Aβ 72 hours
T1 construct: wildtype human SH-SY5Y cell lines, which are known to express ABAD; endogenous in cells; host or cells: SH-SY5Y
T1 sequence (Q99714 2-261 limits assumed): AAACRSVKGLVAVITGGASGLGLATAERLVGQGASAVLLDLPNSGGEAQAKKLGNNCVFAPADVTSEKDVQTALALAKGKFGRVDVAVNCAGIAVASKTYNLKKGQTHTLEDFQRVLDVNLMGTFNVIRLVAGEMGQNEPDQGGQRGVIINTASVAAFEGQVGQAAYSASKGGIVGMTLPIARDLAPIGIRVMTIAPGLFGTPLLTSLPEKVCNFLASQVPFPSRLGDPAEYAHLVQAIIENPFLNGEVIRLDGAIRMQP
Protocol: (§1) Cell Culture. The cell line SH-SY5Y was cultured in DMEM/F12 media supplemented with 10% fetal bovine serum, 1% penicillin-streptomycin and maintained as monolayer cultures in a humidified atmosphere containing 5% CO2 at 37° C.^42 All cell lines were authenticated via short tandem repeat analysis and tested for mycoplasma using the a commercial mycoplasma detection kit as per the manufacturer's instructions, showing no contamination. Where indicated, cells were also cultured in DMEM/low glucose media. All compounds were diluted to 20 mM solution in DMSO and were serially diluted in cell culture media for cell treatments to a final concentration range of 0.01 to 100 μM, maintaining the final DMSO concentration at less than 1%. Positive control compound HupA was serially diluted in a similar fashion as the synthesized compounds.
Amyloid Preparation. The peptide Aβ1-42, referred to as “Aβ”, was obtained from a commercial source. The oligomers of Aβ were prepared using an established method,^43 Aβ peptide was resuspended in 0.5 mM NaOH at a concentration of […] and stored at −80° C. For use in cell cultures, the stock solution was incubated at 37° C. for 5-7 days. Before use, the peptide was diluted to 25 μM in DMEM/low glucose media.
Estradiol ELISA assay. SH-SY5Y cells were treated with compounds (24 hours), followed by Aβ (72 hours) in a similar fashion to that employed in the cell viability assays, the cell culture medium was collected, and cells were lysed using RIPA buffer and protease inhibitor cocktail, then proteins were quantified via BCA assay. An estradiol assay was performed. In brief, the plate was loaded with samples, along with the estradiol tracer and the specific antiserum to estradiol and incubated for one hour at room temperature. After five washing steps, Ellman's Reagent was added, and the plate developed for 60 minutes with gentle shaking at room temperature. The calculated estradiol concentration was normalized to the total protein content of the samples.
Statistical Analyses. The IC50 values of each compound were acquired from a single experiment with each inhibitor concentration run in triplicate and the statistical significance was calculated using the Student t test, or a one-way or two-way ANOVA. A P value of <0.05 was considered statistically significant. IC50 values were calculated.
To determine the effect of Aβ on estradiol production, and ABAD's role in this process, wildtype human SH-SY5Y cell lines, which are known to express ABAD, were incubated for 72 hours with Aβ.^20 Estradiol levels in the cell lysate were measured with a commercial ELISA-based estradiol assay. […] To determine if AG18051 treatment affects Aβ-induced reduction of estradiol levels, 0.1 or 1 μM AG18051 was preincubated in SH-SY5Y cells for 24 hours prior to Aβ exposure. […] AG18051 at 1 μM protected SH-SY5Y cells from Aβ-induced reduction of estradiol production to a greater significance than HupA. This confirms literature reports that AG18051 is neuroprotective and that it exerts this effect by ameliorating Aβ-induced reduction of estradiol production by ABAD.^20, 23
This assay methodology allows direct screening of compound activity in the presence of Aβ and provides direct evidence of the ability of compounds to rescue Aβ-induced reduction of estradiol production by ABAD. To measure the effect of AG18051 alone in SH-SY5Y cell lines, a 0.01-100 μM dose-response range was tested, and their effect on estradiol levels (FIG. 2B). […] To evaluate the effect of the increase of AG18051 dose in maintaining estradiol levels reduced by Aβ, AG18051 was tested in increasing concentrations in the presence of Aβ (FIG. 2B).

SH-SY5Y cells = assay: Cell viability of SH-SY5Y cells with compound alone; type: cell-based, human; details: up to 100 μM
Protocol: as §1
Cell Viability Assays. The SH-SY5Y cells were plated at a density of 50,000 cells/well in 96-well plates and allowed to adapt overnight in a humidified atmosphere containing 5% CO2 at 37° C. The cells were pretreated (24 hours) with the test compound and exchanged to a serum-free DMEM/low glucose media, prior to incubation with 25 μM of Aβ. Cell viability was measured after 48 hours using commercial MTS assay or lactate dehydrogenase (LDH) cytotoxicity assay. […]

Q: With `O=C(C(c1ccccc1)n1cnc2[nH]ncc2c1=S)N1CCC(O)CC1` (centres unmarked) [Compound 14b, 1-(4-hydroxypiperidin-1-yl)-2-phenyl-2-(4-thioxo-1,4-dihydro-5H-pyrazolo[3,4-d]pyrimidin-5-yl)ethan-1-one] as the compound, how does the mitochondrial aspect ratio [1] read?
A: Its mitochondrial aspect ratio is “significantly rescued”.

Q: What about the mitochondrial length [1] of the same compound?
A: Its mitochondrial length is “significantly rescued”.

Q: And the IC50 (Aβ-ABAD PPI; amelioration of Aβ-induced reduction of estradiol levels, read-out: IC50 (estradiol assay))?
A: Its IC50 is 740 nM.

Q: What about the IC50 (Aβ-ABAD PPI; read-out: IC50 (estradiol assay), unit inferred) of the same compound?
A: Its IC50 is 738 ± 105 nM.

Q: What about the “toxicity to reduce cell viability” value (SH-SY5Y cells) of the same compound?
A: Its value is “no toxicity; also recorded: non-toxic”.
